Experimental data published in EP0953345A1, “Use of at least a hydroxystilbene as an agent for decreasing micro-organism adhesion” (priority 1998, dated 1999).

System: Staphylococcus epidermis
Assay: ex vivo bacteria/skin adhesion model on intact human skin explants (3H-thymidine-labelled bacteria, liquid scintillation counting)
Format: cell-based
Source text: L'activité du resvératrol sur l'adhésion de micro-organismes sur la peau ou sur les muqueuses humaines est testée sur un modèle d'adhésion bactéries/peau, tel que décrit ci-après.
Ce modèle d'adhésion bactéries/peau ex vivo est basé sur l'utilisation d'explants de peau humaine intacte montée en sandwich entre une plaque 96 puits sans fond et un support en Plexiglas. Les puits individualisés étanches permettent de tester dans un format standard l'effet du resvératrol sur l'adhésion de Staphylococcus epidermis (bactéries résidentes) à la surface de la peau. Les bactéries sont radio marquées en phase de croissance par incorporation de 3H-thymidine. Cette flore bactérienne est ensuite déposée dans chaque puits. Après une heure d'incubation à 20°C, les puits sont lavés trois fois avec du tampon phosphate salin (PBS) ce qui permet d'éliminer les bactéries libres. Le resvératrol est ensuite ajouté à 0,1 µM et 10 µM et incubé 1 heure à 20°C. A l'issue de cette incubation le contenu de chaque puits est récupéré et compté en scintillation liquide (bactéries désorbées). Les puits sont ensuite lavés avec une solution chaotropique qui permet d'éluer les bactéries adhérentes. Les solutions de lavages sont également compté en scintillation liquide (bactéries adhérentes). Un témoin positif (Fucogel® Acide (poly-[(α-1,3)-Fuc-(α-1,3)-Gal-(α-1,3)-galacturonique]) est inclus à l'étude comme référence.

[1] = Staphylococcus, 1 h, read-out: Bactéries adhérentes
[2] = Staphylococcus, read-out: inhibition de l'adhésion des bactéries

**Q.** Which “dose dependence of the activity on adhesion of bacteria to human skin (in words)” value (0,1 µM and 10 µM) does the source give for `Oc1ccc(C=Cc2cc(O)cc(O)c2)cc1` [resvératrol, 3,4',5-trihydroxystilbène] here?
**A.** Its value is “dose dépendante”.

**Q.** And the activity at 0.1 µM [1]?
**A.** Its activity at 0.1 µM is 71%.

**Q.** What about the activity at 10 µM [1] of the same compound?
**A.** The activity at 10 µM was 64%.

**Q.** And the inhibition at 1 µM [2]?
**A.** Its inhibition at 1 µM is 29%.

**Q.** And the inhibition at 10 µM [2]?
**A.** Its inhibition at 10 µM is 36%.
